Here are results for 23 compounds from patent US5175151A, “Antiviral compounds and antihypertensive compounds” (Schering Corporation, priority 1992, dated 1992).

One may read the IC50 as the concentration needed to halve the response being measured. The term pIC50 denotes −log10 of the IC50, conventionally taken in molar units. A high value points to a small IC50.

pIC50: −log10 of the molar value. Converted amounts (≈) assume the structure as drawn. Read-outs that look alike come from different tables or passages of the source.

One data set deals with HSV-2 (strain MS). Briefly: HSV-β-Gal assay: transient expression of beta galactosidase in transfected HeLa cells superinfected with HSV-2 (in-vitro anti-HSV activity). Format: cell-based. The procedure:
HeLa and Vero cell cultures were maintained in Eagles Minimal Essential Medium which was supplemented with glutamine, penecillin, streptomycin and 10% fetal calf serum (10% EMEM). Stock cultures of HSV-2 (strain MS available from ATCC VR-540) were grown in and harvested from Vero cells. Viral stocks were titered in Vero cells according to established procedures.
Plasmid pON 245^ori- contains the promoter of the HSV-1 thymidine kinase (tk) gene located immediately 5' of the E. coli lac Z gene. In this arrangement, the tk promoter controls transcription from the bacterial gene in transient expression assays. Additionally, an SV40 polyadenylation signal is present at the 3' end of the lac Z gene to allow for the efficient translation of the mRNA in eucaryotic cells. The expression of beta galactosidase in a transient assay using pON 245^ori- is dependent upon superinfection of the transfected cells with HSV. […] For example, see U.S. application Ser. No. 07/435,491 filed Sep. 5, 1989, the disclosure of which is incorporated herein by reference thereto.
HeLa cells were seeded into 96 well microtiter plates and allowed to grow to 80% confluency (approximately 35,000 cells/well). One half microgram of plasmid pON 245^ori- DNA was introduced into the cells of each well by the […] precipitation technique (Graham and Van der Eb, 1973). Four to six hours later, the cells were rinsed with Hank's Balanced Salt Soluton (HBSS), overlaid with 10% EMEM and incubated at 37° C. At 24 hrs post-trasnfection, cells were rinsed, overlaid with 10% EMEM again and re-incubated at 37° C. At 48 hrs post-transfection, cells were rinsed and overlaid with either EMEM containing 2% fetal calf serum (2% EMEM, 2% EMEM containing HSV-2 (strain MS, Multiplicity of Infection [moi]=5 pfu/cell) or 2% EMEM containing HSV-2 and the appropriate concentration of the compound to be tested. Twenty-four hrs later, the cells were harvested and assayed to beta galactosidase activity as described below.
All determinations of beta galactosidase activity were performed in 96 well microtiter plates. The intracellular level of beta galactosidase activity in each well was determined from cell lysates of the monolayer cultures. Aliquots were assayed by incubation in the presence of beta galactosidase substrate, 4-methylumbelliferyl-β-D-galactoside (MUG, 125 ug/ml, Sigma), for 2 hrs. The generation of fluorescent product was quantified on a Microfluor microfluorimeter (Dynatech) after addition of 0.1M glycine, pH 10.3 (Spaete and Mocarski, 1985). The inhibitory activity of a compound was plotted versus the concentration and an IC50 value (the concentration of compound required to reduce beta glactosidase expression by 50%) was obtained for each compound tested.

For data set [1], the target named is T1, cGMP phosphodiesterase (cGMP-PDE) (Bos taurus, UniProt Q28156).
T1 construct: is a homogeneous enzyme obtained from bovine lung and purified by ion-exchange chromatography, gel filtration, and sucrose gradient centrifugation; from tissue; host or cells: bovine lung
The data set can be described thus: Phosphodiesterase inhibition in vitro (cGMP-PDE). Format: biochemical. As to conditions: bovine lung enzyme, 1 μM ^3 H-cGMP, pH 7.5, 25 minutes, room temperature.

Data set [2] is described as follows: Compound toxicity assay: ^3 H-LEU HeLa cell translation (cytotoxicity). The data set is classed as cell-based. As to conditions: human; HeLa cells, translational activity, overnight incubation at 37° C.; read-out: Cytotoxicity, ^3 H-LEU Assay IC50. As for the experimental part: HeLa cells were treated with inhibitory compound for 24 hrs, after which levels of translational activity were assayed.
For assay of translational activity, HeLa cultures were grown to 80% confluency in 96 well microtiter plates, treated with appropriate concentrations of compound in 2% EMEM during an overnight incubation at 37° C., then rinsed with HBSS and overlaid with […] of 2% EMEM containing 8 uCi of tritiated leucine (^3 H-LEU, 141 Cu/mMol, Amersham Corp., Arlington Heights, Ill.). After a 1 hr incubation at 36.5° C., the cells were rinsed twice with phosphate buffered saline (PBS) and lysed in 400 ul/well of 1×PBS, 0.5% sodium dodecyl sulphate (SDS). After a 10 min incubation at 36.5° C., the contents of the well were transferred to a well in a Millititer HA microfiltration plate (Millipore Corp., Bedford, Mass.). The TCA insoluble proteins were precipitated onto the filter disc by a 10 min fixation with 5% TCA, followed by filtration over vacuum and three 10 minute rinses with 95% ethanol. The filters were dried at room temperature, cut from the milltitier plate and transferred to scintillation vials. TCA precipitable counts were assayed in 5 ml of Scintisol (Isolab, Akron, Ohio). The inhibitory activity of a compound was plotted versus the concentration and an IC50 value (that concentration of the compound required to decrease cellular translational activity by 50%) was derived for each compound.

The test system of data set [3] is spontaneously hypertensive rats (SHR). The data set can be described thus: SHR analysis: fall in mean blood pressure in conscious spontaneously hypertensive rats. Format: in vivo, rat (SHR males). As to conditions: for SHR MBP: 25 mpk (p.o.), Table IV. The procedure: The ability of the antihypertensive compounds of the present invention to lower blood pressure can be assessed in vivo in conscious spontaneously hypertensive rats (SHR). SHR males are purchased from Taconic Farms, Germantown, N.Y. and are approximately 16-18 weeks old when anesthetized with ether. The caudal (ventral tail) artery is cannulated with polyethylene tubing (PE50) and blood pressure and heart rate are recorded as described by Baum, T. et al, J. Cardiovasc. Pharmacol. Vol. 5, pp. 665-667, (1983). Rats are placed into plastic cylindrical cages where they rapidly recover consciousness. Blood pressure and heart rate are allowed to stabilize for approximately 90 minutes prior to compound administration. Compounds are administered orally as solutions or suspensions in 0.4% aqueous methylcellulose vehicle via a feeding needle. The compound or 0.4% aqueous methylcellulose vehicle are given in a volume of 4 ml/kg to SHRs that had been fasted overnight. Activity is expressed as the fall in mean blood pressure (MBP) in millimeters of mercury (mm Hg). Compound-induced changes are compared with the changes in an appropriate placebo group.

Data set [4] concerns herpes virus. Conditions: added to lidocaine or lidocaine hydrochloride; cited from earlier work.
For a further data set, the system named is HSV-1. As to conditions: cited from earlier work.
The test system of the next data set is HSV. As to conditions: cited from earlier work.
The subject of data set [5] is herpes virus. Conditions: cited from earlier work.
A further data set relates to HSV-2. Conditions: cited from earlier work.
[6] abbreviates: Human alphaherpesvirus 2, HeLa cells, HSV-2 strain MS, moi 5 pfu/cell, 24 hrs, read-out: Anti-HSV Activity, HSV-β-Gal Assay IC50.
[7] abbreviates: Human alphaherpesvirus 2, *Repeat, HeLa cells, HSV-2 strain MS, moi 5 pfu/cell, 24 hrs, read-out: Anti-HSV Activity, HSV-β-Gal Assay IC50 (repeat).

For `CN(C)CCOc1cc(=O)c2ccccc2n1C` [Compound 1, 1-Methyl-2-(2-Dimethylaminoethoxy)-4(1H)-Quinolinone], the IC50 with HSV-2 (strain MS) (setting [6]) is greater than 25 µg/mL.

Consider `COc1cc(=O)c2cc(C)ccc2n1Cc1ccccc1` [Compound 3, 1-Benzyl-2-Methoxy-6-Methyl-4(1H)-Quinolinone], for which, in the data set with HSV-2 (strain MS) (setting [6]), the 50% inhibitory concentration (IC50) stood at 13 µg/mL (≈ 46.5 µM). Further, in data set [1], the pIC50 was 5.22. The CC50 in [2] stood at 85 µg/mL (≈ 304 µM). On the same counts, the results for `COc1cc(=O)c2ccccc2n1Cc1ccccc1` [Compound 4, 1-Benzyl-2-Methoxy-4(1H)-Quinolinone] are 20 µg/mL (≈ 75.4 µM), 5.59 and 45 µg/mL (≈ 170 µM).

As to `CCCCCCCn1c(OC)cc(=O)c2ccccc21` [Compound 5, 1-Heptyl-2-Methoxy-4(1H)-Quinolinone], in the data set with HSV-2 (strain MS) (setting [6]), the concentration for half-maximal inhibition (IC50) was found to be 9 µg/mL (≈ 32.9 µM). For the same compound, the pIC50 in data set [1] is 5.23. Besides, the CC50 in data set [2] was found to be 45 µg/mL (≈ 165 µM).

For `CCCCCCn1c(OC)cc(=O)c2cccc(C)c21` [Compound 6, 1-Hexyl-2-Methoxy-8-Methyl-4(1H)-Quinolinone], the concentration for half-maximal inhibition (IC50) turned out to be 3 µg/mL (≈ 11 µM) with HSV-2 (strain MS) (Human alphaherpesvirus 2, HeLa, 24 h, read-out: Anti-HSV Activity, HSV-β-Gal Assay IC50) and 6 µg/mL (≈ 21.9 µM) in the data set on HSV-2 (strain MS) (setting [7]). In data set [1], the pIC50 is less than 4.00. In addition, the CC50 in data set [2] is 27 µg/mL (≈ 98.8 µM). The “SHR MBP” value in [3] is given as -1 mm of Hg. On to `CCCCCCn1c(OC)cc(=O)c2cccc(OC)c21` [Compound 7, 1-Hexyl-2,8-Dimethoxy-4(1H)-Quinolinone], for which the half-inhibitory concentration (IC50) in the data set on HSV-2 (strain MS) (setting [7]) was 8 µg/mL (≈ 27.6 µM); in the data set with HSV-2 (strain MS) (setting [6]) it was 5 µg/mL (≈ 17.3 µM). In addition, the CC50 in data set [2] was found to be 21 µg/mL (≈ 72.6 µM). On to `COc1cc(=O)c2cc(C)c(C)cc2n1Cc1ccc(O[Si](C)(C)C(C)(C)C)cc1` [Compound 8, 1-[4-(t-Butyl-Dimethylsilyloxy)] Benzyl-2-Methoxy-6,7-Dimethyl-4-(1H)-Quinolinone], for which, in the data set with HSV-2 (strain MS) (setting [6]), the IC50 was 2 µg/mL (≈ 4.72 µM). Moreover, the CC50 in [2] came out at 25 µg/mL (≈ 59 µM). On to `CCOC(=O)c1c(OC)n(Cc2ccccc2)c2ccc(C)cc2c1=O` [Compound 9, 1-Benzyl-2-Methoxy-3-Carbethoxy-6-Methyl-4-(1H)-Quinolinone], for which the IC50 with HSV-2 (strain MS) (setting [6]) amounted to 3 µg/mL (≈ 8.54 µM). The CC50 in data set [2] was determined as 79 µg/mL (≈ 225 µM). For `COc1cc(=O)c2ccc(OC)c(C)c2o1` [Compound 10, 2,7-Dimethoxy-8-Methyl-1,4-Benzopyrone], the IC50 in the data set on HSV-2 (strain MS) (setting [6]) turned out to be 18 µg/mL (≈ 81.7 µM). Further, the pIC50 in data set [1] is 4.89. Moreover, the CC50 in data set [2] was greater than 100 µg/mL.

In the case of `COc1cc(=O)c2cc(C)c(C)cc2n1Cc1ccc(O)cc1` [Compound 11], in the data set on HSV-2 (strain MS) (setting [6]), the IC50 was 10 µg/mL (≈ 32.3 µM). For the compound `COc1c(Cl)c(=O)c2cc(C)ccc2n1Cc1ccccc1` [Compound 12], in the data set on HSV-2 (strain MS) (setting [6]), the half-inhibitory concentration (IC50) turned out to be 4 µg/mL (≈ 12.7 µM). Besides, in [2], the CC50 worked out at 12 µg/mL (≈ 38.2 µM).

As to `COc1c(I)c(=O)c2ccccc2n1Cc1ccccc1` [Compound 13], the concentration for half-maximal inhibition (IC50) in the data set with HSV-2 (strain MS) (setting [6]) came to 4 µg/mL (≈ 10.2 µM). For the same compound, the CC50 in [2] amounted to 27 µg/mL (≈ 69 µM). `Cn1c(OCCO)cc(=O)c2ccccc21` [Compound 14]: the IC50 with HSV-2 (strain MS) (setting [6]) was greater than 25 µg/mL.

Take `COc1cc(=O)c2cccc(C)c2n1C` [Compound 15]: in data set [3] (25 mpk (P.O.), Table III), the “SHR MBP (fall in mean blood pressure)” value is reported as 12 mm of Hg. Compound `CCCCCCn1c(OC)cc(=O)c2cc(C)ccc21` [Compound 16] gave a pIC50 in [1] of 6.22. Still for that read-out and setting: to `CCCCCCn1c(OC)c(C(=O)OCC)c(=O)c2ccccc21` [Compound 17] belongs 4.85; to `COc1cc(=O)c2cc(OCc3ccccc3)ccc2n1Cc1ccccc1` [R H, R1 --CH3, R2 6-OCH2 Ph, R3 --CH2 Ph], less than 4.00. `COc1ccc2c(c1)c(=O)cc(OC)n2Cc1ccccc1` [R H, R1 --CH3, R2 6-OCH3, R3 --CH2 Ph] gave a pIC50 in data set [1] of less than 4.00. As to `COc1cc(=O)c2ccc(Cl)cc2n1C` [R H, R1 --CH3, R2 7-Cl, R3 --CH3], the pIC50 in data set [1] was less than 4.00. Moreover, the “SHR MBP” value in data set [3] is -7 mm of Hg.

`COC(=O)Cn1c(OC)cc(=O)c2ccccc21` [R H, R1 --CH3, R2 --, R3 --CH2 CO2 CH3] showed a pIC50 in [1] of less than 4.00. As for `CC(C)(CO)[C@@H](O)C(=O)NCCCO` [dexpanthenol], the “enhancement of antiviral activity on addition to lidocaine or lidocaine hydrochloride” value in the data set on herpes virus [4] is “significantly enhances the antiviral activity”. Regarding `CCN(CC)CC(=O)Nc1c(C)cccc1C` [lidocaine, 2-(diethylamino)-N-(2,6-dimethylphenyl)acetamide], the “antiviral agent in cell culture against HSV-1” value in the data set with HSV-1 is “antiviral agent”. Also, the “treatment of HSV oral and genital lesions in humans” value in the data set with HSV is listed as “particularly effective”. In the data set with herpes virus [5], the “treatment of herpes virus infections of mammals” value is on record as “able to treat herpes virus infections of mammals”. Moreover, the “antiviral agent in cell culture against HSV-2” value with HSV-2 was “antiviral agent”. As to `CC(C)(CO)[C@@H](O)C(=O)NCCC(=O)O` [pantothenic acid], the “enhancement of antiviral activity on addition to lidocaine or lidocaine hydrochloride” value in the data set with herpes virus [4] is “significantly enhances the antiviral activity”.
